From patent US6410328B1, “Sensitizing cells to compounds using lipid-mediated gene and compound delivery” (Protiva Biotherapeutics Inc., priority 1998, dated 2002)

How the values were obtained:
[1] = Plasma clearance and in vivo release of free and liposomal GCV in B16 tumored mice (Example 9); set-up: species or system mouse; conditions: 1 hr after single iv dose, 25 mg/kg GCV
Protocol: Large unilamellar vesicles were prepared according to the method of Hope, et al., Biochem. Biophys. Acta. 812:55-65 (1985). 55 mole % sphingomyelin and 45 mole % of cholesterol were dissolved in chloroform with a drop of methanol and approximately 0.035 μCi of ^14C-CHE. Lipids were dried down under a stream of nitrogen gas and the resulting lipid film was then placed under high vacuum for at least 3 hrs. A solution of ganciclovir containing ^3H-GCV was made up in 30% ethanol, 70% HBS (20 mM Hepes, 145 mM NaCl pH 7.45) to 50 or 100 mg/mL depending on the sample size. The lipid to GCV weight ratio was initially 1 to 1. The GCV solution was added to the lipid film. […] The lipid concentration was determined by scintillation counting of ^14C-CHE label. The GCV concentration was determined by counting ^3H-GCV and a Bligh Dyer assay.
Groups of four female C57BL/6 mice per time point were injected subcutaneously with 150,000 B16 tumor cells. […] Circulating levels of lipid and GCV were determined at 15 min, 1, 8, 24 and 48 hrs for the liposomal GCV groups. Levels of GCV were determined at 15 min and 1 hr for the free GCV groups. […] Lipid and GCV levels in the plasma were determined. Lipid and GCV were measured by counting ^14C-CHE and ^3H-GCV. One hundred or 200 μL aliquots of plasma were measured on a Beckman LS3801 scintillation counter.

[2] = tested on: B16 murine melanoma cells stably transfected with HSV-TK; assay: Efficacy of liposomal ganciclovir in the B16TK tumor model (Example 11); assay type: in vivo, mouse; conditions: day 18; 25 mg/kg ganciclovir every other day from day five, six injections
Protocol: FIG. 13 illustrates efficacy of liposomal ganciclovir in the B16TK tumor model. Female C57BL/6 mice were seeded subcutaneously in the hind flank with 150,000 B16 murine melanoma cells stably transfected with HSV-TK. Five days later, tumor measurement began. Starting on day five, mice were treated with liposomal or free GCV (25 mg/kg ganciclovir) or HBS (Hepes Buffered Saline) every other day for a total of six injections. Measurements at day 18 indicate that tumors in the control mice are 5-fold larger than those of the treated groups. Tumor volume was determined by measuring tumor in three dimensions with calipers.
Groups of 4 or 5 female C57BL/6 mice were injected intradermally with B16 cells stably transfected with HSV-TK. Once tumors were measurable (day 5), the mice were injected intravenously with liposomal GCV (25 mg/kg GCV). Injections were continued every other day for 6 injections. Tumor measurements were typically taken every other day.

[3] = Organ biodistribution of free and liposomal GCV in B16 tumored mice (Example 10); assay type: in vivo, mouse
Protocol: (§1) Groups of four female C57BL/6 mice per time point were injected subcutaneously with 150,000 B16 tumor cells. The tumors were grown for 14 days at which time a single iv dose of free GCV or liposomal GCV was given via the lateral tail vein. This dose, given in a total of 200 μL, contained approximately 5.6 mg (10 μmoles) lipid and 0.5 mg (1.96 μmoles) GCV resulting in lipid and GCV doses of 300 mg/kg and 25 mg/kg, respectively. Circulating levels of lipid and GCV were determined at 15 min, 1, 8, 24 and 48 hrs for the liposomal GCV groups. Levels of GCV were determined at 15 min and 1 hr for the free GCV groups. At each time point, animals were anesthetized with ketamine/xylazine and blood was collected via cardiac puncture. Blood was put into EDTA coated microtainers and spun at 500 g for 10 min in order to pellet blood cells and obtain plasma. Lipid and GCV levels in the plasma were determined. Lipid and GCV were measured by counting ^14C-CHE and ^3H-GCV. One hundred or 200 μL aliquots of plasma were measured on a Beckman LS3801 scintillation counter.
Biodistribution data was collected from those mice that were in the pharmacokinetic studies. Following heart puncture, mice were terminated by cervical dislocation. Tissues were harvested from each animal and weighed. Saline was added to each organ prior to homogenization by either a Polytron homogenizer (livers) or a Fast Prep® machine. Tissues were solubilized in Solvable for 3 to 16 hr at 50° C. The samples were then cooled to room temperature before defoaming and decolourizing with EDTA and hydrogen peroxide respectively. Picofluorscintillation fluid was added to the samples prior to counting on the scintillation counter.

in vivo = conditions: female, C57BL/6, mouse, iv, 25 mg/kg
Protocol: as §1, with “counter. […]” for “counter.”
Tumor bearing mice were treated intravenously with 25 mg/kg of free or liposomal GCV. Lipid and GCV were quantified using ^14C-CHE and ^3H-GCV labels. […] Free ganciclovir is rapidly cleared from the tumor, with only 1.1+/−0.1 % of the total injected dose per gram of tumor detected at 1 hr. […]

Nc1nc(O)c2ncn(COC(CO)CO)c2n1 [free GCV, ganciclovir]
injected dose remaining in circulation [1]: 0.4 % of the injected dose | tumor size in control HBS-treated mice relative to treated groups [2]: 5 fold | GCV content of organs assayed (liver, lungs, spleen, kidneys) ([3]; 15 min and 1 hr, except kidneys at 15 min): essentially absent | GCV found in the kidneys ([3]; 15 minute time point): 3.5+/−1.8 % of the total injected dose | GCV found in the liver ([3]; 15 minutes after administration): 3.1+/−0.1 % of the initial injected dose | GCV in the spleen ([3]; 1 hr (peak for liposomal GCV)): 0.04+/−0.02 % of the total injected dose | tissue uptake at 1 h (in vivo): 1.1 %ID/g
